Data published in the supplement of paper PMC10307832.

What was measured:
Test in all cases: relative viability (nuclei count vs DMSO), 5 days (fraction); higher = more cells survive
[1] = test system: NCI-H1755
How it was run: (§1)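 Lung cancer cell lines were pin-tool dosed in 1536-well plates on the day after seeding, with either a lone drug or a fixed anchor-drug dose plus five library-drug doses (not always all listed) in √10 steps. Nuclei were counted on 4× images after 5 days. Relative viability is the ratio of treated-well to vehicle-well nuclei counts, with each value a median of duplicate plates.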

[2] = test system: NCI-H1666
How it was run: as §1

[3] = test system: NCI-H2085
How it was run: as §1

[4] = test system: NCI-H358
How it was run: as §1

[5] = test system: NCI-H3122
How it was run: as §1

[6] = test system: ChaGo-K-1
How it was run: as §1

[7] = test system: NCI-H1355
How it was run: as §1

[8] = test system: NCI-H441
How it was run: as §1

[9] = test system: NCI-H2347
How it was run: as §1

[10] = test system: NCI-H1944
How it was run: as §1

[11] = test system: NCI-H838
How it was run: as §1

[12] = test system: NCI-H520
How it was run: as §1

[13] = test system: EKVX
How it was run: as §1

[14] = test system: LK-2
How it was run: as §1

[15] = test system: NCI-H460
How it was run: as §1

[16] = test system: NCI-H2228
How it was run: as §1

[17] = test system: SW 1573
How it was run: as §1

[18] = test system: NCI-H322M
How it was run: as §1

[19] = test system: H3255
How it was run: as §1

[20] = test system: A-427
How it was run: as §1

[21] = test system: NCI-H650
How it was run: as §1

[22] = test system: NCI-H596
How it was run: as §1

[23] = test system: NCI-H1650
How it was run: as §1

## Cc1cnc(-c2cnc(NCCNc3ccc(C#N)cn3)nc2-c2ccc(Cl)cc2Cl)[nH]1 + O=C(c1cc(Cc2n[nH]c(=O)c3ccccc23)ccc1F)N1CCN(C(=O)C2CC2)CC1 [Olaparib] (partner 8 µM)
[1]; first compound 0.08 µM
  relative viability: 0.941
[1]; first compound 0.253 µM
  relative viability: 0.819
[1]; first compound 0.8 µM
  relative viability: 0.804
[1]; first compound 2.53 µM
  relative viability: 0.869
[2]; first compound 0.08 µM
  relative viability: 0.775
[2]; first compound 0.253 µM
  relative viability: 0.732
[2]; first compound 0.8 µM
  relative viability: 0.765
[2]; first compound 2.53 µM
  relative viability: 0.781
[3]; first compound 0.08 µM
  relative viability: 0.804
[3]; first compound 0.253 µM
  relative viability: 0.792
[3]; first compound 0.8 µM
  relative viability: 0.711
[3]; first compound 2.53 µM
  relative viability: 0.79
[4]; first compound 0.08 µM
  relative viability: 0.578
[4]; first compound 0.253 µM
  relative viability: 0.522
[4]; first compound 0.8 µM
  relative viability: 0.555
[4]; first compound 2.53 µM
  relative viability: 0.517
[5]; first compound 0.08 µM
  relative viability: 0.568
[5]; first compound 0.8 µM
  relative viability: 0.651
[5]; first compound 2.53 µM
  relative viability: 0.545
[6]; first compound 0.08 µM
  relative viability: 0.406
[6]; first compound 0.253 µM
  relative viability: 0.361
[6]; first compound 0.8 µM
  relative viability: 0.362
[6]; first compound 2.53 µM
  relative viability: 0.322
[7]; first compound 0.08 µM
  relative viability: 0.793
[7]; first compound 0.253 µM
  relative viability: 0.648
[7]; first compound 0.8 µM
  relative viability: 0.749
[7]; first compound 2.53 µM
  relative viability: 0.716
[8]; first compound 0.08 µM
  relative viability: 0.568
[8]; first compound 0.8 µM
  relative viability: 0.536
[8]; first compound 2.53 µM
  relative viability: 0.387
[9]; first compound 0.08 µM
  relative viability: 0.623
[9]; first compound 0.253 µM
  relative viability: 0.495
[9]; first compound 0.8 µM
  relative viability: 0.663
[9]; first compound 2.53 µM
  relative viability: 0.587
[10]; first compound 0.08 µM
  relative viability: 0.446
[10]; first compound 0.8 µM
  relative viability: 0.42
[10]; first compound 2.53 µM
  relative viability: 0.413
[11]; first compound 0.08 µM
  relative viability: 0.756
[11]; first compound 0.253 µM
  relative viability: 0.768
[11]; first compound 0.8 µM
  relative viability: 0.796
[11]; first compound 2.53 µM
  relative viability: 0.75
[12]; first compound 0.08 µM
  relative viability: 0.366
[12]; first compound 0.253 µM
  relative viability: 0.3
[12]; first compound 0.8 µM
  relative viability: 0.354
[12]; first compound 2.53 µM
  relative viability: 0.311
[13]; first compound 0.08 µM
  relative viability: 0.939
[13]; first compound 0.253 µM
  relative viability: 0.814
[13]; first compound 0.8 µM
  relative viability: 0.715
[13]; first compound 2.53 µM
  relative viability: 0.85
[14]; first compound 0.08 µM
  relative viability: 0.728
[14]; first compound 0.253 µM
  relative viability: 0.543
[14]; first compound 0.8 µM
  relative viability: 0.611
[14]; first compound 2.53 µM
  relative viability: 0.78
[15]; first compound 0.08 µM
  relative viability: 0.323
[15]; first compound 0.8 µM
  relative viability: 0.342
[15]; first compound 2.53 µM
  relative viability: 0.402
[16]; first compound 0.08 µM
  relative viability: 0.56
[16]; first compound 0.253 µM
  relative viability: 0.332
[16]; first compound 0.8 µM
  relative viability: 0.732
[16]; first compound 2.53 µM
  relative viability: 0.419
[17]; first compound 0.08 µM
  relative viability: 0.532
[17]; first compound 0.253 µM
  relative viability: 0.406
[17]; first compound 0.8 µM
  relative viability: 0.494
[17]; first compound 2.53 µM
  relative viability: 0.233
[18]; first compound 0.08 µM
  relative viability: 0.768
[18]; first compound 0.253 µM
  relative viability: 0.733
[18]; first compound 0.8 µM
  relative viability: 0.638
[18]; first compound 2.53 µM
  relative viability: 0.637
[19]; first compound 0.08 µM
  relative viability: 0.585
[19]; first compound 0.253 µM
  relative viability: 0.543
[19]; first compound 0.8 µM
  relative viability: 0.542
[19]; first compound 2.53 µM
  relative viability: 0.563
[20]; first compound 0.08 µM
  relative viability: 0.759
[20]; first compound 0.253 µM
  relative viability: 0.711
[20]; first compound 0.8 µM
  relative viability: 0.822
[20]; first compound 2.53 µM
  relative viability: 0.743
[21]; first compound 0.08 µM
  relative viability: 0.41
[21]; first compound 0.253 µM
  relative viability: 0.36
[21]; first compound 0.8 µM
  relative viability: 0.479
[21]; first compound 2.53 µM
  relative viability: 0.393
[22]; first compound 0.08 µM
  relative viability: 1.09
[22]; first compound 0.253 µM
  relative viability: 0.736
[22]; first compound 0.8 µM
  relative viability: 0.775
[22]; first compound 2.53 µM
  relative viability: 0.724
[23]; first compound 0.08 µM
  relative viability: 0.724
[23]; first compound 0.253 µM
  relative viability: 0.737
[23]; first compound 0.8 µM
  relative viability: 0.808
[23]; first compound 2.53 µM
  relative viability: 0.868
